From ChEMBL document CHEMBL1201862, “PubChem BioAssay data set” (2004)
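Growth conditions: 96-well plates. Treatment: test compound, 48 hours, 5 concentrations. Analysis: linear interpolation between bracketing concentrations; unreached endpoints set to highest concentration. Abbreviation: GI50, concentration required for 50% inhibition of growth.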 Active and inactive are the calls of the source. No stated cut-off is given here; in the data, active = GI50 up to about 1.1 µM and inactive = higher.

Tests used:
Experiment in all cases: NCI anticancer screen, dose series, 48 h
A549 = tested on: A549
HCT-116 = tested on: HCT-116
UACC-62 = tested on: UACC-62
HL-60 = tested on: HL-60
SF-295 = tested on: SF-295
786-0 = tested on: 786-0
HT-29 = tested on: HT-29
OVCAR-4 = tested on: OVCAR-4
KM12 = tested on: KM12
MOLT-4 = tested on: MOLT-4
Malme-3M = tested on: Malme-3M
SK-MEL-2 = tested on: SK-MEL-2
NCI-H226 = tested on: NCI-H226
NCI-H460 = tested on: NCI-H460
CCRF-CEM = tested on: CCRF-CEM
LOX IMVI = tested on: LOX IMVI
A498 = tested on: A498
ACHN = tested on: ACHN

| SMILES | GI50 (A549) | GI50 (HCT-116) | GI50 (UACC-62) | GI50 (HL-60) | GI50 (SF-295) | GI50 (786-0) | GI50 (HT-29) | GI50 (OVCAR-4) | GI50 (KM12) | GI50 (MOLT-4) | GI50 (Malme-3M) | GI50 (SK-MEL-2) | GI50 (NCI-H226) | GI50 (NCI-H460) | GI50 (CCRF-CEM) | GI50 (LOX IMVI) | GI50 (A498) | GI50 (ACHN) |
| --- | --- | --- | --- | --- | --- | --- | --- | --- | --- | --- | --- | --- | --- | --- | --- | --- | --- | --- |
| CC(O[Si](C)(C)C)C1C=CC(C)n2c(=O)n(-c3ccccc3)c(=O)n21 (stereo not given) | > 100 µM (inactive) | > 100 µM (inactive) | > 100 µM (inactive) | > 100 µM (inactive) | > 100 µM (inactive) | > 100 µM (inactive) | > 100 µM (inactive) | > 100 µM (inactive) | > 100 µM (inactive) | > 100 µM (inactive) | > 100 µM (inactive) | > 100 µM (inactive) |  |  |  |  |  |  |
| COC12OCCN(C)C1=CC(=O)C1(C)N=NCC12 (stereo not given) | > 100 µM (inactive) | > 100 µM (inactive) | > 100 µM (inactive) |  | > 100 µM (inactive) | > 100 µM (inactive) | > 100 µM (inactive) |  | > 100 µM (inactive) | > 100 µM (inactive) | > 100 µM (inactive) |  | > 100 µM (inactive) | > 100 µM (inactive) | > 100 µM (inactive) | > 100 µM (inactive) | > 100 µM (inactive) | > 100 µM (inactive) |
| Cc1cc2c(=O)cc(-c3cccs3)oc2c(C(=O)O)c1C | > 100 µM (inactive) | > 100 µM (inactive) | > 100 µM (inactive) |  | > 100 µM (inactive) | > 100 µM (inactive) | > 100 µM (inactive) | > 100 µM (inactive) | 97.7 µM (inactive) | > 100 µM (inactive) | > 100 µM (inactive) | > 100 µM (inactive) |  | > 100 µM (inactive) | 64.7 µM (inactive) | > 100 µM (inactive) | > 100 µM (inactive) | > 100 µM (inactive) |
| COc1ccc(C2=NN(C(=O)COc3ccc(Cl)cc3)C(O)(c3ccc(Cl)cc3)C2)cc1 (stereo not given) | > 100 µM (inactive) | > 100 µM (inactive) | > 100 µM (inactive) | > 100 µM (inactive) | > 100 µM (inactive) | > 100 µM (inactive) | > 100 µM (inactive) | > 100 µM (inactive) | > 100 µM (inactive) | > 100 µM (inactive) | > 100 µM (inactive) | > 100 µM (inactive) | > 100 µM (inactive) | > 100 µM (inactive) |  | > 100 µM (inactive) |  | > 100 µM (inactive) |
| CC(C)(C)C(=O)CC(=O)C(C)(C)C.CC(C)(C)C(=O)CC(=O)C(C)(C)C.[SiH4] | 2.95 µM (inactive) | 1.26 µM (inactive) | 2.99 µM (inactive) |  | 1.01 µM (active) | 2.69 µM (inactive) | 0.475 µM (active) | 0.612 µM (active) | 0.767 µM (active) | 2.11 µM (inactive) | 6.12 µM (inactive) |  | 0.0428 µM (active) |  | 1.79 µM (inactive) |  | 2.81 µM (inactive) | 0.689 µM (active) |
| COc1cc(Nc2nc3ccc(C(F)(F)F)cc3nc2-c2ccccc2)cc(OC)c1OC | 23.8 µM (inactive) |  | 36.2 µM (inactive) |  | 3.05 µM (inactive) | 31 µM (inactive) | 1.98 µM (inactive) | 51.4 µM (inactive) | 9.38 µM (inactive) | 8.41 µM (inactive) | 37 µM (inactive) | 21.9 µM (inactive) | 7.66 µM (inactive) | 4.82 µM (inactive) | 8.11 µM (inactive) | 4.32 µM (inactive) | 24.5 µM (inactive) | 9.1 µM (inactive) |
| N=C(N)NCCCC(Nc1c2ccccc2nc2ccccc12)C(=O)O (stereo not given) | > 100 µM (inactive) | > 100 µM (inactive) |  | 26.5 µM (inactive) | > 100 µM (inactive) | > 100 µM (inactive) | > 100 µM (inactive) | 3.51 µM (inactive) | > 100 µM (inactive) | 86.7 µM (inactive) | > 100 µM (inactive) | > 100 µM (inactive) | > 100 µM (inactive) | > 100 µM (inactive) | > 100 µM (inactive) | > 100 µM (inactive) |  | > 100 µM (inactive) |
